Experiment: Metabolite profiling of ADP in excreta, plasma and bile (LC-v.ARC/MS-IT-TOF)
Type: in vivo, swine
Settings: for percentage of the individual metabolite compared with the total concentration of ADP-related: within 6 h after dosing; for Average percentage of ADP and its metabolites in total dose: Swine, single oral 5 mg/kg b.w. ^3H-ADP
Experimental: Animals (4 swine, 6 broilers, 6 carp, and 3 male and 3 female rats) were housed individually in clean, suspended wire-mesh metabolism cages, designed to separate the urine from the feces (carp were raised in individual aquaria). Each animal was weighed and assigned with a permanent identification number. A single dose of ^3 H-ADP (5 mg/kg b. w., 0.1 Ci/g) was administered via the oral gavage. Excreta were collected on ice at the pre-administration, in the period of 6, 12, and 24 h on day 1 d, and afterwards, intermittently in the period of 24 h up to 14 d. The piscine excreta were collected by changing and collecting raised water. The total volume or weight of each sample was measured and homogenized. The total radioactivity levels were determined through LSC for the recovery calculations. After the preparation, the samples were analyzed through LC/MS-IT-TOF with v. ARC radiometric detection (XenoBioticLaboratories, Inc.) for metabolite profiling. The pretreatment samples were used as controls to determine the background radioactivity or the endogenous nondrug-related ions observed within respective matrices or their extracts.
A total of 36 animals from each species (swine n = 24) were randomly assigned to six equal treatment groups and administered a single daily dose of ^3 H-ADP at 5 mg/kg b. w. (0.1 Ci/g) through oral gavage for 7 consecutive days. All the animals were housed on the basis of their group in the cages or aquaria throughout the whole study period. A group of animals was slaughtered through exsanguination under diethyl ether inhalation of anesthesia in the period of 6 h, 1, 3, 7, 14, and 21 d after the administration. The blood samples were immediately collected into the heparinized tubes and was centrifuged at 1920 × g at 4 °C for 10 min to obtain the plasma. The tissues from the heart, liver, spleen, lung, kidney, craw (broilers), stomach, intestine, fat, skin, muscle, thymus, pancreas, bile, bladder, hair (scale for carp), genital gland, adrenal glands, swim bladder (carp), brain, lymph, and bursa (broilers) were carefully excised and collected. The tissues were thoroughly rinsed with the deionized water to remove the residuary blood, blotted to dryness, and finally to perform the homogenization. In order to avoid cross-contamination the dissecting instruments were washed during the tissue procurements. The blank tissues were collected in order to provide control matrices. The total radioactivity levels in each sample were determined through LSC. The samples extracted from the plasma, bile, and tissues of the liver, kidney, muscle, and fat/skin were analyzed through LC/MS-IT-TOF and v. ARC radiometric detection for metabolite profiling. The blank samples were used as control to determine the background radioactivity or the endogenous nondrug-related ions observed within respective matrices or their extracts.
For metabolite profiling, the urine and feces samples from each animals were pooled proportionally to the excreted amount in each sampling period from 0 to 6 h, 6 h to 1 d, 1 to 3 d, 3 to 7 d, and 7 to 14 d post-dose, respectively. All samples were fully homogenized before the process. The pre-dose and blank samples served as the controls for determining the background radioactivity or the endogenous, nondrug-related ions observed within respective matrices or their extracts.
The urine samples (plasma, bile and raised water for carp) was subjected to solid-phase extraction with an Oasis MCX cartridge (3 mL, […]; Waters, Milford, MA, USA) for metabolite purification and enrichment. The pH value was adjusted to 2.8–3.2 by adding 1 M hydrochloric acid (HCl), and 2 mL of the sample was transferred into MCX cartridge, which was preconditioned with 3 mL of methanol and 3 mL of 0.1 mol/L HCl solution. The cartridge was washed with 3 mL of 0.1 mol/L HCl solution and was eluted with 5 mL of NH4OH/methanol (4:96, v:v). The effluent was concentrated to dryness under a stream of nitrogen at 40 °C. […]

SMILES: CNc1c(OC)cc(Cc2cnc(N)nc2N)cc1OC [A1, N-monodesmethyl-ADP]
- percentage of the individual metabolite compared with the total concentration of ADP-related (Swine Feces): 9.7%
- percentage of the individual metabolite compared with the total concentration of ADP-related (Swine Plasma): 23.7%
- percentage of the individual metabolite compared with the total concentration of ADP-related (Swine Urine): 11.4%
- Average percentage of ADP and its metabolites in total dose (Feces): 2.9%
- Average percentage of ADP and its metabolites in total dose (Urine): 13.3%

SMILES: COc1cc(Cc2cnc(N)nc2N)cc(OC)c1N [A2, N-didesmethyl-ADP]
- percentage of the individual metabolite compared with the total concentration of ADP-related (Swine Feces): 1.1%
- percentage of the individual metabolite compared with the total concentration of ADP-related (Swine Plasma): 15.0%
- percentage of the individual metabolite compared with the total concentration of ADP-related (Swine Urine): 11.8%
- Average percentage of ADP and its metabolites in total dose (Feces): 0.5%
- Average percentage of ADP and its metabolites in total dose (Urine): 11.3%

SMILES: COc1cc(Cc2cnc(N)nc2N)cc(OC)c1N(C)C [A0, 2,4-Diamino-5-[4-(dimethylamino)-3,5-dimethoxybenzyl] pyrimidine]
- percentage of the individual metabolite compared with the total concentration of ADP-related (Swine Feces): 89.1%
- percentage of the individual metabolite compared with the total concentration of ADP-related (Swine Plasma): 53.0%
- percentage of the individual metabolite compared with the total concentration of ADP-related (Swine Urine): 42.3%
- Average percentage of ADP and its metabolites in total dose (Feces): 16.0%
- Average percentage of ADP and its metabolites in total dose (Urine): 33.4%
- share of sample radioactivity (swine urine, period of 7–14 d (as the text reads), single oral dose): approximately 90%

From paper PMC4738305, “Metabolism and Disposition of Aditoprim in Swine, Broilers, Carp and Rats” (Scientific Reports, 2016)
